Patent US9663473B2 (Actelion Pharmaceuticals Ltd, priority 2013, dated 2017)
Counter-ions that a name gives are not always drawn.

These compounds were tested against T1, recombinant human ALX receptor (Homo sapiens, UniProt P25090) (assay: Intracellular calcium measurements (FLIPR), ALX receptor agonistic activity). Details: HEK293-hALXR-Gα16 cells, Fluo-4 calcium signal, normalized to WKYMVm 10 nM.
T1 construct: expressed in transfected cells; host or cells: HEK293 (HEK293-hALXR-Gα16)
T1 sequence (P25090 1-351): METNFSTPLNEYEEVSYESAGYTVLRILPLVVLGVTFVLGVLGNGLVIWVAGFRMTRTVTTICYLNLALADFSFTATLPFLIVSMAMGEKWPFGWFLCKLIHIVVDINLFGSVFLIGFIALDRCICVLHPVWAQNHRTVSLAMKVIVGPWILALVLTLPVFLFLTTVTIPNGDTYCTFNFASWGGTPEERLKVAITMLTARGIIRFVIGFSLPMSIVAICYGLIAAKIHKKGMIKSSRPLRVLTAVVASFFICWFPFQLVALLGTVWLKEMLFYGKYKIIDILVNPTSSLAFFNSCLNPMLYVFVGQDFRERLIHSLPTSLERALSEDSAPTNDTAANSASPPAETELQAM
Assay type: cell-based
Experimental: The ALX receptor agonistic activity of the compounds of formula (I) is determined in accordance with the following experimental method.
Intracellular Calcium Measurements:
Cells expressing recombinant human ALX receptor and the G-protein Gα16 (HEK293-hALXR-Gα16) were grown to 80% confluency in Growing Medium (GM). Cells were detached from culture dishes with a cell dissociation buffer (Invitrogen, 13151-014), and collected by centrifugation at 1′000 rpm at rt for 5 min in Assay Buffer (AB) (equal parts of Hank's BSS (Gibco, 14065-049) and DMEM without Phenol Red (Gibco, 11880-028)). After 60 min incubation at 37° C. under 5% CO2 in AB supplemented with 1 μM Fluo-4 (AM) (Invitrogen, F14202) and 20 mM HEPES (Gibco, 15630-056), the cells were washed and resuspended in AB. They were then seeded onto 384-well FLIPR assay plates (Greiner, 781091) at 50′000 cells in 70 μl per well and sedimented by centrifugation at 1′000 rpm for 1 min. Stock solutions of test compounds were made up at a concentration of 10 mM in DMSO, and serially diluted in AB to concentrations required for activation dose response curves. WKYMVm (Phoenix Peptides) was used as a reference agonist. A FLIPR Tetra instrument (Molecular Devices) was operated according to the manufacturer's standard instructions, adding 4 μl of test compound dissolved at 10 mM in DMSO and diluted prior to the experiment in assay buffer to obtain the desired final concentration. Changes in fluorescence were monitored before and after the addition of test compounds at lex=488 nm and lem=540 nm. Emission peak values above base level after compounds addition were exported after base line subtraction. Values were normalized to high-level control (WKYMVm compound, 10 nM final concentration) after subtraction of the base line value (AB addition).

Row | EC50 [nM] | Compound
1 | 5.2 | C[C@]1(O)CC[C@H](NC(=O)NC(Cc2ccc(Br)c(F)c2)c2nc3ccccc3[nH]2)CC1 (mixture of isomers) [Example 231, 1-(1-(1H-Benzo[d]imidazol-2-yl)-2-(4-bromo-3-fluorophenyl)ethyl)-3-(trans-4-hydroxy-4-methylcyclohexyl)urea]
2 | 5.1 | COc1ccc(CC(NC(=O)N[C@H]2CC[C@](C)(O)CC2)c2nc3ccccc3[nH]2)c(F)c1 (mixture of isomers) [Example 234, 1-(1-(1H-Benzo[d]imidazol-2-yl)-2-(2-fluoro-4-methoxyphenyl)ethyl)-3-(trans-4-hydroxy-4-methylcyclohexyl)urea]
3 | 3.5 | COc1cc(F)c(CC(NC(=O)N[C@H]2CC[C@](C)(O)CC2)c2nc3ccccc3[nH]2)c(F)c1 (mixture of isomers) [Example 236, 1-(1-(1H-Benzo[d]imidazol-2-yl)-2-(2,6-difluoro-4-methoxyphenyl)ethyl)-3-(trans-4-hydroxy-4-methylcyclohexyl)urea]
4 | 77 | C[C@]1(O)CC[C@H](NC(=O)NC(Cc2ccc(C(F)(F)F)c(F)c2)c2nc3ccccc3[nH]2)CC1 (mixture of isomers) [Example 239, 1-(1-(1H-Benzo[d]imidazol-2-yl)-2-(3-fluoro-4-(trifluoromethyl)phenyl)ethyl)-3-(trans-4-hydroxy-4-methylcyclohexyl)urea]
5 | 155 | COc1c(F)cc(CC(NC(=O)N[C@H]2CC[C@](C)(O)CC2)c2nc3ccccc3[nH]2)cc1F (mixture of isomers) [Example 243, 1-(1-(1H-Benzo[d]imidazol-2-yl)-2-(3,5-difluoro-4-methoxyphenyl)ethyl)-3-(trans-4-hydroxy-4-methylcyclohexyl)urea]
6 | 1.8 | COc1ccc(CC(NC(=O)N[C@H]2CC[C@](C)(O)CC2)c2nc3ccc(F)cc3[nH]2)c(F)c1 (mixture of isomers) [Example 246, 1-(1-(6-Fluoro-1H-benzo[d]imidazol-2-yl)-2-(2-fluoro-4-methoxyphenyl)ethyl)-3-(trans-4-hydroxy-4-methylcyclohexyl)urea]
7 | 7.2 | COc1cc(F)c(CC(NC(=O)N[C@H]2CC[C@](C)(O)CC2)c2nc3ccccc3[nH]2)cc1F (mixture of isomers) [Example 250, 1-(1-(1H-Benzo[d]imidazol-2-yl)-2-(2,5-difluoro-4-methoxyphenyl)ethyl)-3-(trans-4-hydroxy-4-methylcyclohexyl)urea]
8 | 17 | COc1ccc(CC(NC(=O)N[C@H]2CC[C@](C)(O)CC2)c2nc3ccccc3[nH]2)c(F)c1F (mixture of isomers) [Example 252, 1-(1-(1H-Benzo[d]imidazol-2-yl)-2-(2,3-difluoro-4-methoxyphenyl)ethyl)-3-(trans-4-hydroxy-4-methylcyclohexyl)urea]
9 | 25 | C[C@]1(O)CC[C@H](NC(=O)NC(Cc2ccc(Br)cc2F)c2nc3ccccc3[nH]2)CC1 (mixture of isomers) [Example 253, 1-(1-(1H-Benzo[d]imidazol-2-yl)-2-(4-bromo-2-fluorophenyl)ethyl)-3-(trans-4-hydroxy-4-methylcyclohexyl)urea]
10 | 152 | COc1ccc(CC(C)(NC(=O)N[C@H]2CC[C@H](O)CC2)c2nc3ccccc3[nH]2)cc1 (relative stereo) [Example 1, 1-(2-(1H-Benzo[d]imidazol-2-yl)-1-(4-methoxyphenyl)propan-2-yl)-3-(trans-4-hydroxycyclohexyl)urea]
11 | 81 | COc1ccc(C2(C(NC(=O)N[C@H]3CC[C@H](O)CC3)c3nc4ccccc4[nH]3)CC2)cc1 (relative stereo) [Example 2, 1-((1H-Benzo[d]imidazol-2-yl)(1-(4-methoxyphenyl)cyclopropyl)methyl)-3-(trans-4-hydroxycyclohexyl)urea]
12 | 119 | COc1ccc(C(C)(C)C(NC(=O)N[C@H]2CC[C@H](O)CC2)c2nc3ccccc3[nH]2)cc1 (relative stereo) [Example 3, 1-(1-(1H-Benzo[d]imidazol-2-yl)-2-(4-methoxyphenyl)-2-methylpropyl)-3-(trans-4-hydroxycyclohexyl)urea]
13 | 112 | COc1ccc(C[C@@H](NC(=O)N[C@H]2C[C@@H]2c2ccccc2)c2nc3ccccc3[nH]2)cc1 (relative stereo) [Example 16, 1-((R)-1-(1H-Benzo[d]imidazol-2-yl)-2-(4-methoxyphenyl)ethyl)-3-((1 S*,2R*)-2-phenylcyclopropyl)urea hydrochloride]
14 | 29 | COc1ccc(C[C@@H](NC(=O)N[C@H]2CCCC[C@H]2C(N)=O)c2nc3ccccc3[nH]2)cc1 (relative stereo) [Example 18, (1R*,2S*)-2-(3-((R)-1-(1H-Benzo[d]imidazol-2-yl)-2-(4-methoxyphenyl)ethyl)ureido)cyclohexanecarboxamide]
15 | 24 | COc1ccc(C[C@@H](NC(=O)N[C@H]2CCCC[C@@H]2O)c2nc3ccccc3[nH]2)cc1 (relative stereo) [Example 24, 1-((R)-1-(1H-Benzo[d]imidazol-2-yl)-2-(4-methoxyphenyl)ethyl)-3-((1 S*,2S*)-2-hydroxycyclohexyl)urea]
16 | 9.2 | CCOC(=O)[C@@H]1CCCC[C@@H]1NC(=O)N[C@H](Cc1ccc(OC)cc1)c1nc2ccccc2[nH]1 (relative stereo) [Example 28, (1R*,2S*)-Ethyl 2-(3-((R)-1-(1H-benzo[d]imidazol-2-yl)-2-(4-methoxyphenyl)ethyl)ureido)cyclohexanecarboxylate]
17 | 56 | CCOC(=O)[C@@H]1CCCC[C@H]1NC(=O)N[C@H](Cc1ccc(OC)cc1)c1nc2ccccc2[nH]1 (relative stereo) [Example 29, trans-Ethyl 2-(3-((R)-1-(1H-benzo[d]imidazol-2-yl)-2-(4-methoxyphenyl)ethyl)ureido)cyclohexanecarboxylate (ent-1)]
18 | 13 | COc1ccc(C[C@@H](NC(=O)N[C@H]2CCCC[C@@H]2CO)c2nc3ccccc3[nH]2)cc1 (relative stereo) [Example 32, 1-((R)-1-(1H-Benzo[d]imidazol-2-yl)-2-(4-methoxyphenyl)ethyl)-3-((1 S*,2S*)-2-(hydroxymethyl)cyclohexyl)urea]
19 | 42 | COc1ccc(C[C@@H](NC(=O)N[C@H]2CCCC[C@H]2CO)c2nc3ccccc3[nH]2)cc1 (relative stereo) [Example 34, 1-((R)-1-(1H-Benzo[d]imidazol-2-yl)-2-(4-methoxyphenyl)ethyl)-3-((1 S*,2R*)-2-(hydroxymethyl)cyclohexyl)urea]
20 | 540 | COc1ccc(CC(NC(=O)N(C)[C@H]2CC[C@H](O)CC2)c2nc3ccccc3[nH]2)cc1 (relative stereo) [Example 76, 3-(1-(1H-Benzo[d]imidazol-2-yl)-2-(4-methoxyphenyl)ethyl)-1-(trans-4-hydroxycyclohexyl)-1-methylurea]
21 | 203 | CCOc1ccc(CC(NC(=O)N[C@H]2CC[C@H](O)CC2)c2nc3ccccc3[nH]2)cc1 (relative stereo) [Example 77, 1-(1-(1H-Benzo[d]imidazol-2-yl)-2-(4-ethoxyphenyl)ethyl)-3-(trans-4-hydroxycyclohexyl)urea]
22 | 693 | N#Cc1ccc(CC(NC(=O)N[C@H]2CC[C@H](O)CC2)c2nc3ccccc3[nH]2)cc1 (relative stereo) [Example 78, 1-(1-(1H-Benzo[d]imidazol-2-yl)-2-(4-cyanophenyl)ethyl)-3-(trans-4-hydroxycyclohexyl)urea]

Row | Compound | EC50 [nM]
23 | 1-(1-(1H-Benzo[d]imidazol-2-yl)-2-(3,5-difluoro-4-methoxyphenyl)ethyl)-3-(4-hydroxybicyclo[2.2.2]octan-1-yl)urea [Example 242] | 70
